Values of other authors in patent US20180028686A1 (priority 2014, published 2018).

System: RVFV

## NC(=O)c1ncn([C@@H]2O[C@H](CO)[C@@H](O)[C@H]2O)n1 [Ribavirin, ribavirin]
  IC50 values: low micromolar range
